Test results published in patent US20250027930A1, “SMALL MOLECULES FOR REPROGRAMING ANTI-TUMOR IMMUNITY OF T CELLS” (THE SCRIPPS RESEARCH INSTITUTE, priority 2021, published 2025).

Legend:
[1] = test system: CD8+ OT-I T cells; experiment: OT-I splenocyte culture with K-Ras(G12C) inhibitors; type: cell-based, mouse; conditions: 5 μM
[2] = test system: M8 tetramer+ CD8+ TILs; experiment: Rapid expansion of M8 tetramer+ CD8+ TILs from MC38 tumors; type: cell-based, mouse; conditions: 5 μM
Excerpt: We further observed that K-Ras(G12C) inhibitor 12 prevents the generation of terminally exhausted (PD-1^+, Tim-3^+) antigen-specific CD8^+ tumor infiltrating lymphocytes (TILs) and facilitates production of progenitor-like (Tpex, Tim-3^−, TCF-1^+) antigen-specific CD8^+ TILs during in vitro expansion. Specifically, to elucidate the ability of K-Ras(G12C) inhibitor 12 to modulate properties of tumor infiltrating lymphocytes (TILs) in vitro, we utilized an MC38 murine colonic cancer model. C57BL/6J (B6) mice were inoculated with MC38 cells. Tumors were grown for 14 days and then harvested. Antigen specific (H-2K^b-restricted MuLV p15E604-611-specific, henceforth M8 tetramer^+) CD8^+ TILs were isolated. M8 tetramer^+ CD8^+ TILs were subjected to rapid expansion. On day 1 of rapid expansion, TILs were added 1:100 with irradiated BALB/c splenocytes and incubated with 1500 IU/mL IL2 for proliferation, […] anti-CD3 (mouse) antibody for activation, and with or without K-Ras(G12C) inhibitor 12 (5 μM).

[3] = test system: hPBMCs; experiment: Donor hPBMC expansion with irradiated feeder cells; type: cell-based, human; conditions: 2 μM
Experimental: (FIG. 9A) Donor hPBMCs were activated twice with irradiated (50 Gy) feeder cell mixture, initially on day 0 and then similarly on day 6. […] (FIG. 9C) Gated CD8^+ hPBMCs were analyzed for the expression of inhibitory receptors Tim-3 and PD-1 (terminally exhausted phenotype downregulation not statistically significant in either donor). (FIG. 9D) the expression of Tim-3 and TCF-1. (FIG. 9E) the expression of CCR7 and CD45RA.
Donor hPBMC cells were co-cultured 1:1 with an irradiated (50 Gy) mixture of hPBMCs from five different donors (henceforth, feeder cells). Irradiation arrests cell division, yet these feeder cells retain the ability to provide extracellular secretions to help donor cells proliferate. Cytokine signaling and HLA mismatch provides for robust donor hPBMC activation. Donor hPBMCs were activated twice with the irradiated feeder cell mixture, initially on day 0 and then similarly on day 6 (FIG. 9A). Beginning on day 0, donor hPBMCs were continuously cultured with 300 IU/mL IL2 and with or without K-Ras(G12C) inhibitor 12 (2 μM) (FIG. 9A).

[4] = test system: OT-I splenocytes; experiment: OT-I splenocyte culture with KRAS (G12C) inhibitors 9/12 and analogues; type: cell-based, mouse; conditions: added D0 at 5 uM or D3 at 5 uM or 10 uM, kept till day 7
Experimental: We performed additional studies to examine the observed activities of KRAS (G12C) inhibitors in modulating T cell properties. First, OT-I splenocytes were activated with OVA257-264 peptide (500 nM) for 3 days in the presence of 60 IU/mL IL-2 and cultured for another 7 days. Inhibitor 9 (i9) or inhibitor 12 (i12) was added on Day0 (D0) upon activation at 5 uM and the concentration was kept till day 7 or added on Day3 (D3) after activation at 5 uM or 10 uM and the concentration was kept till day 7 for analysis.
Other than inhibitors 9 and 12, we also tested activities of two analogues of these KRAS (G12C) inhibitors. The analogues, Z7 and Z6, are derived from Inhibitor 9 and Inhibitor 12, respectively. They have an alkynyl group for click reaction which is used for ABPP analysis to find the targets of the inhibitors (FIG. 18A). In the studies, OT-I splenocytes were activated with OVA257-264 peptide (500 nM) for 3 days in the presence of 60 IU/mL IL-2 and cultured for another 7 days. 5 uM […], i9, z6 or z7 were added on Day0 (DO) upon activation.
As noted above, Inhibitor 9 and Inhibitor 12 have a cysteine-reactive group ([…] and acrylamide) that allows covalent binding of i9 and i12 to a cysteine residue in proteins. We further tested two analogue compounds, ZT-1 and ZT-2, that are not capable of forming the covalent binding. […] Cell number was recorded on day 5 and day 7. […]

[5] = test system: hPBMCs; experiment: Donor hPBMC expansion with irradiated feeder cells; type: cell-based, human; conditions: 2 μM; remark: listed apart in the source
[6] = test system: anti-GD2 CAR-T cells; experiment: Anti-GD2 CAR-T cell expansion with Inhibitor 9/12, phenotype and cell number; conditions: for expression of inhibitory receptors (PD-1, LAG3, Tim-3 and CD39) of anti-GD2 CAR-T cells / progenitor features of anti-GD2 CAR-T cells: Inhibitor 9 at 2 or 3 uM, Inhibitor 12 at 1 or 2 uM, day 15
[7] = test system: OT-1 cells; experiment: OT-I-Tcf7GFP splenocyte screen: proliferation and Tim3−TCF-1+ ratio; type: cell-based, mouse; conditions: Day7, 80 mM
Experimental: Cell number was recorded on day 3 and day 7. On day 7, cells were stained with anti-CD8a (PerCP-Cy5.5) and anti-Tim3 (BV421) antibodies for flow cytometry or plate reader analysis.
Because TCF1 expression positively correlates with T cell stemness, the greater signal of EGFP a T cell expresses, the less differentiated the T cell is. Furthermore, if the compound also facilitates T cells proliferation, there would be more T cells per well in comparison to the untreated control. Therefore, a compound that not only maintains TCF-1 expression but also facilitates T cell growth would produce the strongest green fluorescence intensity. […] GlcA stands for glucuronic acid.

[8] = test system: P14 cells; experiment: P14 splenocyte in vitro activation, re-stimulation and expansion; type: cell-based, mouse; conditions: 80 mM; for Fold of proliferation, Normalized to W/O: P14 cells
[9] = test system: P14 CD8+ T cells; type: in vivo, mouse
[10] = test system: MC38 TSA-reactive CD8+ TILs; experiment: Rapid expansion of TSA-reactive CD8+ TILs from MC38 tumors; type: cell-based, mouse
Experimental: Sugars were added at the beginning or during the expansion of the TILs, and kept till the end of expansion. On expansion day 9, phenotypes of the expanded T cells were assessed, and the cells were used for adoptive transfer (FIG. 6E). For adoptive transfer, 0.5 million cells (B16-OVA or MC38) were inoculated subcutaneously on each mouse on day 0, Listeria monocytogenes-OVA (LM-OVA) infection 0.5 million CFU/mice on day 1, and blood analysis was recorded on day 7.

[11] = test system: OVA-specific TILs; experiment: In vivo expansion of expanded OVA-specific TILs after LM-OVA challenge; set-up: species or system mouse; conditions: naïve mice; vs T cells expanded without added sugars

C=CC(=O)N1CCN(C(=O)CNc2cc(I)c(Cl)cc2O)CC1 [K-Ras(G12C) inhibitor 12]
cell expansion ([1]; OT-I): does not compromise cell expansion | generation of progenitor-like T cells ([1]; OT-I culture model): effectively promoted the generation of progenitor-like T cells | terminally exhausted (PD-1^+, Tim-3^+) CD8^+ OT-I T cells ([1]; day 5, untreated 23.8%): about 0.46% | progenitor-like phenotype (Tim-3^−, TCF-1^+) CD8^+ OT-I T cells ([1]; day 5, untreated 38.6%): 91.6% | CD8+ cells displaying the terminally exhausted phenotype (PD-1^+ Tim-3^+) ([2]; day 8 post rapid expansion, untreated 79.4%): 29.2% | cell expansion ([2]; day 8 post-expansion, pre-expansion 0.1×10^6, untreated 1.18×10^6, n=1): 0.397×10^6 TILs | CD8^+ cells displaying the progenitor-like phenotype (Tim-3^−, TCF-1^+) ([2]; post-expansion, untreated 0.076%): 12.8% | terminally exhausted (PD-1^+, Tim-3^+) CD8^+ hPBMCs ([3]; day 13, donor 3, untreated 3.52%): 2.6% | terminally exhausted (PD-1^+, Tim-3^+) CD4^+ hPBMCs ([3]; day 13, donor 3, untreated 15.7%): 0.83% | progenitor-like phenotype (Tim-3^−, TCF-1^+) CD8^+ hPBMCs ([3]; day 13, donor 3, untreated 15.9%): 51.5% | terminally exhausted (PD-1^+, Tim-3^+) CD8^+ hPBMCs ([3]; day 13, donor 4, untreated 5.01%): 3.27% | progenitor-like phenotype (Tim-3^−, TCF-1^+) CD8^+ hPBMCs ([3]; day 13, donor 4, untreated 6.78%): 39.7% | CD8^+ terminally differentiated effector memory cells (TEMRA, CCR7^−, CD45RA^+) ([3]; donor 3 and donor 4): downregulated | stem-like memory CD8^+ T cells (TSCM, CCR7^+, CD45RA^+) ([3]; donor 3 and donor 4): produced less-differentiated stem-like memory CD8^+ T cells | mean cell expansion ([3]; hPBMCs from both donors): no statistically significant compromise | expression of inhibitory receptors (Tim-3+PD-1) [4]: decreased | TEMRA (donor 3) or TEM (donor 4) CD4^+ hPBMCs [5]: downregulated | stem-like memory CD4^+ T cells (TSCM, CCR7^+, CD45RA^+) [5]: upregulated | progenitor-like phenotype (Tim-3^−, TCF-1^+) CD4^+ hPBMCs ([5]; day 13, donor 3, untreated 33.3%): 78.4% | terminally exhausted (PD-1^+, Tim-3^+) CD4^+ hPBMCs ([5]; day 13, donor 4, untreated 14.7%): 7.9% | progenitor-like phenotype (Tim-3^−, TCF-1^+) CD4^+ hPBMCs ([5]; day 13, donor 4, untreated 53.3%): 78.7% | expression of inhibitory receptors (PD-1, LAG3, Tim-3 and CD39) of anti-GD2 CAR-T cells [6]: decreased the expression of inhibitory receptors | progenitor features of anti-GD2 CAR-T cells [6]: increased progenitor features

OC[C@H]1O[C@@](CO)(O[C@H]2O[C@H](CO)[C@@H](O)[C@H](O)[C@H]2O)[C@@H](O)[C@@H]1O [Sucrose, sucrose]
Tim3^−TCF-1^+ ratio of CD8^+ T cells (%) ([7]; w/o 2.6): 41.2% | activity at 80000 µM ([7]; Mus musculus, Splenocyte, 168 h, OT-1 cells, read-out: Proliferation fold, Normalized to W/O): 86% | Fold of proliferation, Normalized to W/O ([8]; Day6): 1.80 fold | Tim3^−TCF-1^+ ratio of CD8^+ T cells (%) ([8]; Day6, w/o 55.0): 89.8% | Fold of proliferation, Normalized to W/O ([8]; Day9): 2.85 fold | Tim3^−TCF-1^+ ratio of CD8^+ T cells (%) ([8]; Day9, w/o 3.5): 48.6% | percentages and total numbers of expanded virus-specific P14 CD8+ T cells in the blood ([9]; 7 dpi LCMV-Cl13, cells pre-treated in vitro, vs co-transferred untreated P14 cells): significantly higher | percentages and total numbers of expanded virus-specific P14 CD8+ T cells in the spleen and liver ([9]; 14 dpi LCMV-Cl13, cells treated in vitro, vs untreated): significantly higher | cell surface anti-CLA (Cutaneous Lymphocyte-associated Antigen) staining [10]: significant increase | proliferation of transferred expanded cells after LM-OVA challenge [11]: better proliferation

K-Ras(G12C) Inhibitor 9
expression of inhibitory receptors (Tim-3+PD-1) [4]: decreased | proliferation of CAR-T cells ([6]; 2 or 3 uM): facilitated the proliferation | expression of inhibitory receptors (PD-1, LAG3, Tim-3 and CD39) of anti-GD2 CAR-T cells [6]: decreased the expression of inhibitory receptors | progenitor features of anti-GD2 CAR-T cells [6]: increased progenitor features
